Values quoted from earlier work in patent US7374920B2, “Ginkgo biloba levopimaradiene synthase” (priority 2001, dated 2008).

Key:
[1] = target: platelet-activating factor (PAF) receptor (Homo sapiens, UniProt P25105); details: compared with the other ginkgolide diterpenes; cited from earlier work
[2] = tested on: insect larvae; details: Schwarz, M., 1994; Matsumoto, et al., 1987; cited from earlier work

Chain of platelet-activating factor (PAF) receptor (P25105 whole entry): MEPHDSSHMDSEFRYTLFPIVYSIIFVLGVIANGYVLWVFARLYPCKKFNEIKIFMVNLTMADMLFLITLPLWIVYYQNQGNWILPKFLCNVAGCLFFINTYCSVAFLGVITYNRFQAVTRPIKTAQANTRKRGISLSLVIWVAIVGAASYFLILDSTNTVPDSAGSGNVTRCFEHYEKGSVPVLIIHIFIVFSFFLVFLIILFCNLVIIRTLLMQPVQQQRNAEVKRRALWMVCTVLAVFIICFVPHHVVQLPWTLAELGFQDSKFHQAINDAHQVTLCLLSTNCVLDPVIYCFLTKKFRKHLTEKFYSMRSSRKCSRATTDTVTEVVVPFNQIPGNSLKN

SMILES | PAF antagonist activity [1] | antifeedant activity [2]
CC1C(=O)OC2C(O)C34C5CC(C(C)(C)C)C36C(OC(=O)C6O)OC4(C(=O)O5)C12O (centres unmarked) [ginkgolide B] | highest activity of the diterpenes | –
CC(C)(C)[C@]1(O)CC2OC(=O)CC23C(=O)OC2OC(=O)[C@H](O)C231 (some centres unmarked) [bilobalide] | – | significant antifeedant activities toward insect larvae
